Measurements: patent publication US9586947B2, “Imidazoline derivatives, preparation methods thereof, and their applications in medicine” (priority 2012, dated 2017)
Read-outs that look alike come from different tables or passages of the source.

Columns and labels:
[1] = system: PSA secretion of LNCaP cells; experiment: Inhibitory activity on PSA secretion of LNCaP cells; assay type: cell-based; settings: Homo sapiens, 96 h, read-out: IC50 (inhibition of PSA secretion of LNCaP cells)
Protocol: The following in vitro assay was performed to determine the activity of the compounds of the present invention for inhibiting prostate specific antigen (PSA) secretion of LNCaP cells.
(11). Testosterone culture medium: RIPM 1640 culture medium, 10% CS-FBS, 1% Pen Strep, 1 nM testosterone
LNCaP cells were subcultured in cell culture medium, resuspended in active carbon culture medium, and then inoculated into a 96-well plate (100 μl/well) with an inoculation density of 5×10^4 cells/well.
(§1) The test compounds were dissolved in DMSO (dimethyl sulfoxide) and prepared as a 10 mM stock solution. When used, the stock solution was diluted with 5×DMSO and then diluted with a threefold gradient to obtain 8 gradient concentrations. Then, the 8 gradient concentrations were each diluted with 20× testosterone culture medium, in order to ensure DMSO concentration in each culture system was 0.5%. Diluted test compounds remained to be tested.
10 μl of diluted test compounds were added to a 96-well plate and mixed gently. 10 μl of 0.5% DMSO diluted with active carbon culture medium was added to the blank group, and 10 μl of 0.5% DMSO diluted with testosterone culture medium was added to the control group. The 96-well plate was cultured in an incubator under the conditions of 37° C. and 5% CO2.
After 4 days of incubation, 60 μl of cell cultural supernatants were collected, and the OD450 value per well was measured on a NOVO Star microplate reader using PSA kit (Abnova, KA0208).
(§2) IC50 values were calculated from the data of the inhibition rates of the test compounds at various concentrations.

[2] = system: PSA secretion of LNCaP-AR cells (AR-overexpressed LNCaP cells); experiment: Agonist activity on PSA secretion of LNCaP-AR cells; assay type: cell-based; settings: 96 h, 4 days, OD value (test compounds)/OD value (blank control), blank control 100
Protocol: The following in vitro assay was performed to determine the activity of a high concentration of the compounds of the present invention for agitating the PSA secretion of LNCaP-AR cells (AR-overexpressed LNCaP cells, referred to as “LNCaP-AR cells” for short, constructed by a retroviral transfection method).
LNCaP-AR cells were subcultured in cell culture medium, resuspended in active carbon culture medium, and then inoculated into a 96-well plate (100 μl/well) with an inoculation density of 5×10^4 cells/well.
as §1, with “DMSO into the two concentrations of 2 mM” for “5×DMSO”, “0.6 mM.” for “then diluted with a threefold gradient to obtain 8 gradient concentrations.”, “diluted” for “8 gradient”, “active carbon” for “testosterone”
10 μl of diluted test compounds were added to a 96-well plate and mixed gently. 10 μl of 0.5% DMSO diluted with active carbon culture medium was added to the blank control group.
After 4 days of incubation, 60 μl of cell cultural supernatants were collected, and the OD value of PSA per well was measured on a NOVO Star microplate reader using PSA kit (abnova, KA0208).
Agonist activity of the test compounds of the present invention on PSA secretion of LNCaP-AR cells was evaluated by the percentage of OD value (test compounds)/OD value (blank control). When the percentage value is greater than 100, the test compounds have agonist activity on PSA secretion of LNCaP-AR cells compared to the blank control. Conversely, when the percentage value is less than 100, the test compounds have no agonist activity on PSA secretion of LNCaP-AR cells compared to the blank control.

[3] = Pharmacokinetics assay in rats, intragastric administration; assay type: in vivo; settings: Sprague-Dawley, rat, po, male SD rats, 5 mg/kg; for Vd/F: read-out: Apparent Distribution Volume Vz/F; for AUC: read-out: Area Under Curve AUC; for CL/F: read-out: Clearance CLz/F; for half-life: read-out: Half-Life T½ (converted); for MRT: read-out: Mean Residence Time MRT; for Cmax: read-out: Plasma Conc. Cmax
Protocol: Male rats were used as test animals. The compounds of Example 6, Example 9, Example 11, Example 13, Example 15, Example 16, Example 17, Example 44, and Example 45 were administered intragastrically to rats to determine the drug concentration in plasma at different time points by LC/MS/MS method. The pharmacokinetic behavior of the compounds of the present invention was studied and evaluated in rats.
27 healthy adult male Sprague-Dawley (SD) rats, purchased from SINO-BRITISH SIPPR/BK LAB. ANIMAL LTD., CO, Certificate No.: SCXK (Shanghai) 2008-0016, were divided into 9 groups, with 3 rats in each group.
The appropriate amount of test compounds was weighed and mixed with 0.5% CMC-Na to prepare a 0.5 mg/mL suspension by an ultrasonic method.
After an overnight fast, 27 SD rats were divided into 9 groups, and administered the compounds intragastrically at a dose of 5.0 mg/kg and an administration volume of 10 mL/kg.
Compounds of Example 6, Example 9, Example 11, Example 13, Example 15, Example 16, Example 17, Example 44, and Example 45 were administered intragastrically to rats. Blood samples (0.1 mL) were taken from the orbital sinus before administration, and at 0.5 h, 1.0 h, 2.0 h, 3.0 h, 4.0 h, 6.0 h, 8.0 h, 11.0 h, and 24.0 h after administration, stored in heparinized tubes, and centrifuged for 5 minutes at 3,500 rpm to separate blood plasma. The plasma samples were stored at −20° C. The rats were fed 2 hours after administration.
The concentration of the different test compounds in rat plasma after intragastrically administering the test compounds was determined by LC-MS/MS method. The linearity of the method is 1.00-2000 ng/ml. Plasma samples were analyzed after protein precipitation was accomplished by the addition of methanol.

[4] = system: LNCaP cells; experiment: Proliferation inhibition of LNCaP cells (CCK-8); assay type: cell-based; settings: Homo sapiens, 144 h, cultured 3 + 3 days, CCK-8, OD at 450 nm
Protocol: The following in vitro assay was performed to determine the activity of the compounds of the present invention for inhibiting the proliferation of LNCaP cells.
(1). Cell counting reagent CCK-8 (DOJINDO, CK04)
See experimental procedure from Test Example 1.
After LNCaP cells were cultured for 3 days, the culture medium, test compounds, blank group, and control group were renewed with half of the liquid volume, and were cultured for another 3 days. Then, all 96-well plates were mixed gently with 10 μl of CCK-8 and cultured in an incubator for 2-3 hours under the conditions of 37° C. and 5% CO2. The OD value per well was measured at 450 nm on a Victor3 microplate reader.
as §2

[5] = LNCaP cells, 1 nM testosterone medium, 4 days of incubation, PSA kit OD450

## CC1(C)C(=O)N(c2ccc(C#N)c(C(F)(F)F)c2)C(=S)N1c1ccc(OCC2(N)CC2)c(F)c1 [Example 6, 4-(3-(4-((1-Aminocyclopropyl)methoxy)-3-fluorophenyl)-4,4-dimethyl-5-oxo-2-thioxoimidazolidin-1-yl)-2-(trifluoromethyl)benzonitrile]
[1]; LNCaP
  IC50: 24 nM
[2]
  activity at 3 µM: 93.2%
  activity at 10 µM: 100%
[3]; in vivo
  Vd/F: 6.02 ± 1.69 L/kg
  AUC: 16800 ± 7480 ng·h/mL
  CL/F: 5.75 ± 2.44 mL/min/kg
  half-life: 13.1 ± 4.6 h
  MRT: 17.8 ± 6.2 h
  Cmax: 1200 ± 330 ng/mL

## CC1(C)C(=O)N(c2ccc(C#N)c(C(F)(F)F)c2)C(=S)N1c1ccc(O[C@@H]2COC[C@H]2O)cc1 [Example 15, 4-(3-(4-(((3R,4R)-4-hydroxytetrahydrofuran-3-yl)oxy)phenyl)-4,4-dimethyl-5-oxo-2-thioxoimidazolidin-1-yl)-2-(trifluoromethyl)benzonitrile]
[1]; LNCaP
  IC50: 52 nM
[2]
  activity at 3 µM: 77.5%
  activity at 10 µM: 84.8%
[3]; in vivo
  Vd/F: 3.97 ± 0.341 L/kg
  AUC: 21400 ± 4100 ng·h/mL
  CL/F: 3.99 ± 0.75 mL/min/kg
  half-life: 11.7 ± 1.7 h
  MRT: 18.2 ± 2.3 h
  Cmax: 999 ± 172 ng/mL

## CC1(C)C(=O)N(c2ccc(C#N)c(C(F)(F)F)c2)C(=S)N1c1ccc(OC[C@H](O)CO)cc1 [Example 45, (R)-4-(3-(4-(2,3-Dihydroxypropoxy)phenyl)-4,4-dimethyl-5-oxo-2-thioxoimidazolidin-1-yl)-2-(trifluoromethyl)benzonitrile]
[1]; [5]
  IC50: 35 nM
[4]
  IC50: 74 nM
[3]; plasma
  Vd/F: 3.27 ± 0.261 L/kg
  AUC: 13000 ± 365 ng·h/mL
  CL/F: 6.4 ± 0.18 mL/min/kg
  half-life: 5.9 ± 0.3 h
  MRT: 10 ± 0.6 h
  Cmax: 980 ± 173 ng/mL

## CC1(C)C(=O)N(c2ccc(C#N)c(C(F)(F)F)c2)C(=S)N1c1ccc(OC2CCS(=O)(=O)CC2)c(F)c1 [Example 23, 4-(3-(4-((1,1-Dioxidotetrahydro-2H-thiopyran-4-yl)oxy)-3-fluorophenyl)-4,4-dimethyl-5-oxo-2-thioxoimidazolidin-1-yl)-2-(trifluoromethyl)benzonitrile]
[1]; [5]
  IC50: 24 nM
[4]
  IC50: 180 nM

## CC1(C)C(=O)N(c2ccc(C#N)c(C(F)(F)F)c2)C(=S)N1c1ccc(OC2COC2)cc1 [Example 40, 4-(4,4-Dimethyl-3-(4-((oxetan-3-yl)oxy)phenyl)-5-oxo-2-thioxoimidazolidin-1-yl)-2-(trifluoromethyl)benzonitrile]
[1]; [5]
  IC50: 29 nM
[4]
  IC50: 196 nM

## CC(=O)N1CCC(Oc2ccc(N3C(=S)N(c4ccc(C#N)c(C(F)(F)F)c4)C(=O)C3(C)C)cc2F)C1 (stereo not shown) [Example 36, 4-(3-(4-((1-Acetylpyrrolidin-3-yl)oxy)-3-fluorophenyl)-4,4-dimethyl-5-oxo-2-thioxoimidazolidin-1-yl)-2-(trifluoromethyl)benzonitrile]
[1]; [5]
  IC50: 23 nM
[4]
  IC50: 115 nM

## CC1(C)C(=O)N(c2ccc(C#N)c(Cl)c2)C(=S)N1c1ccc(OCC2(N)CC2)c(F)c1 [Example 35, 4-(3-(4-((1-Aminocyclopropyl)methoxy)-3-fluorophenyl)-4,4-dimethyl-5-oxo-2-thioxoimidazolidin-1-yl)-2-chlorobenzonitrile]
[1]; [5]
  IC50: 57 nM
[4]
  IC50: 277 nM

## CC1(C)C(=O)N(c2ccc(C#N)c(C(F)(F)F)c2)C(=S)N1c1ccc(OCC2(N)CC2)cc1 [Example 37, 4-(3-(4-((1-Aminocyclopropyl)methoxy)phenyl)-4,4-dimethyl-5-oxo-2-thioxoimidazolidin-1-yl)-2-(trifluoromethyl)benzonitrile]
[1]; [5]
  IC50: 23 nM
[4]
  IC50: 63 nM

## CC1(C)C(=O)N(c2ccc(C#N)c(C(F)(F)F)c2)C(=S)N1c1ccc(OC(F)F)c(F)c1 [Example 3, 4-(3-(4-(Difluoromethoxy)-3-fluorophenyl)-4,4-dimethyl-5-oxo-2-thioxoimidazolidin-1-yl)-2-(trifluoromethyl)benzonitrile]
[1]; [5]
  IC50: 35 nM
[4]
  IC50: 46 nM

## CC1(C)C(=O)N(c2ccc(C#N)c(C(F)(F)F)c2)C(=S)N1c1ccc(OCC2(C#N)CC2)c(F)c1 [Example 39, 4-(3-(4-((1-Cyanocyclopropyl)methoxy)-3-fluorophenyl)-4,4-dimethyl-5-oxo-2-thioxoimidazolidin-1-yl)-2-(trifluoromethyl)benzonitrile]
[1]; [5]
  IC50: 27 nM
[4]
  IC50: 256 nM

## CC1(C)C(=O)N(c2ccc(C#N)c(C(F)(F)F)c2)C(=S)N1c1ccc(O[C@@H]2COC[C@H]2O)c(F)c1 [Example 8, 4-(3-(3-fluoro-4-(((3R,4R)-4-hydroxytetrahydrofuran-3-yl)oxy)phenyl)-4,4-dimethyl-5-oxo-2-thioxoimidazolidin-1-yl)-2-(trifluoromethyl)benzonitrile]
[1]; LNCaP
  IC50: 21 nM
[2]
  activity at 3 µM: 65%
  activity at 10 µM: 99.5%
